Data set [1] has as its target T1, Peroxisome proliferator-activated receptor gamma (Homo sapiens, UniProt P37231).
T1 sequence (P37231 whole entry): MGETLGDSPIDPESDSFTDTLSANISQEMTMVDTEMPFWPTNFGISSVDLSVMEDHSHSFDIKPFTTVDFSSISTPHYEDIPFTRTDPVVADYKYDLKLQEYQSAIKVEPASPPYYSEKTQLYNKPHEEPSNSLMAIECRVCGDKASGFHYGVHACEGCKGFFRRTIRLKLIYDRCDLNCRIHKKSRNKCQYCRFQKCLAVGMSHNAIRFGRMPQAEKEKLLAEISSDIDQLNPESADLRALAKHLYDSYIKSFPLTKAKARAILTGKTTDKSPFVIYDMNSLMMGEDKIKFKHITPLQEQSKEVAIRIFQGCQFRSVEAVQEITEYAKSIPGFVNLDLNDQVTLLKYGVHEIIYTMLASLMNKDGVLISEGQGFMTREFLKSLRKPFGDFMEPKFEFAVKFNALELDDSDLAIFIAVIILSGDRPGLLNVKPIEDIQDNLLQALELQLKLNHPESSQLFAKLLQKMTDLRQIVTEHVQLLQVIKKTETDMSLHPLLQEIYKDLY
The experiment in a line: Inhibition of PPARgamma assessed as transcriptional activity.

Data set [2] concerns the target T1, Peroxisome proliferator-activated receptor gamma.
Description: (§1) Agonist activity at PPARgamma assessed as transcriptional activation
The target is the same in data set [3]. This is another data set of the same source.
Description: as §1
For data set [4], the species on record is Mus musculus. Kind of data set: Antihyperglycemic activity in KK/Ta mouse assessed as reduction in plasma glucose level at 0.01% in diet relative to control. Set-up: scale not given: the % may be the effect or the level left. The format is functional.
Data set [5] is filed under the species Mus musculus. Kind of data set: Antihyperglycemic activity in KK/Ta mouse assessed as reduction in body weight at 0.01% in diet after 7 days relative to control. The format is functional. Set-up: scale not given: the % may be the effect or the level left.
For data set [6], the species on record is Mus musculus. The experiment in a line: Antihyperglycemic activity in KK/Ta mouse assessed as reduction in food intake at 0.01% in diet after 7 days relative to control. The class given is functional. The arrangement: scale not given: the % may be the effect or the level left.
For data set [7], the target named is T1, Peroxisome proliferator-activated receptor gamma. Kind of data set: Binding affinity to PPARgamma.
The target in data set [8] is T2, Peroxisome proliferator-activated receptor alpha (Homo sapiens) (UniProt Q07869).
T2 sequence (whole entry): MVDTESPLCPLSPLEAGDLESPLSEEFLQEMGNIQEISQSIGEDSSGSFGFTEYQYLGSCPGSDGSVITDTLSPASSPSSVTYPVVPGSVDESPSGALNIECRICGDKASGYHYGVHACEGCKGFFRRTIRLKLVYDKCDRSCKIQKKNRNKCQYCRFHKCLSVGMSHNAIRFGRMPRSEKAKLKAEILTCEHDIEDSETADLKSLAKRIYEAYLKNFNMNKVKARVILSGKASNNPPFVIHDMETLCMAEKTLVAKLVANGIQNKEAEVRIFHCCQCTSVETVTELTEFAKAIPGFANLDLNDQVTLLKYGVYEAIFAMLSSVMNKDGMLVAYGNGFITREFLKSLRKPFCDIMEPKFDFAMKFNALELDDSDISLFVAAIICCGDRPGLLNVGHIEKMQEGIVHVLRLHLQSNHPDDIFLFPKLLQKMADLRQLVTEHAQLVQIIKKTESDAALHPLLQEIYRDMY
Kind of data set: Agonist activity at PPARalpha by transactivation assay. The class given is functional.

The target of data set [9] is T3, Peroxisome proliferator-activated receptor delta (Homo sapiens) (UniProt Q03181).
T3 sequence (whole entry): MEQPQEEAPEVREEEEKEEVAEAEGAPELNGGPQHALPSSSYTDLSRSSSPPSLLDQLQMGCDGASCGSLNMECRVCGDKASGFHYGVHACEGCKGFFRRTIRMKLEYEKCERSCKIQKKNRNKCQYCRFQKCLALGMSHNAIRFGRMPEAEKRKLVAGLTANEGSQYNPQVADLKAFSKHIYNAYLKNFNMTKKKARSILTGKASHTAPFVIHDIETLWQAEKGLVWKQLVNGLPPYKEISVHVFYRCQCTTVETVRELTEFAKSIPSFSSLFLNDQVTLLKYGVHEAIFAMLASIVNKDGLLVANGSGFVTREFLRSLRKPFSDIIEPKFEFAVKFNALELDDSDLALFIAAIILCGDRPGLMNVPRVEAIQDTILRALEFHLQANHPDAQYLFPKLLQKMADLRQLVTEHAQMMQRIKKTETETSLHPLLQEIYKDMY
Kind of data set: Agonist activity at PPARdelta by transactivation assay. The format is functional.

In data set [10] the test system is Mus musculus. Kind of data set: Toxicity in db/db mouse assessed as heart weight administered at 0.01% in diet (Rvb=102+/-4.8 mg). The class given is organism-based. The note with it: in vivo, po.
Data set [11] relates to Mus musculus. The experiment in a line: Toxicity in db/db mouse assessed as heart weight administered at 0.1% in diet (Rvb=102+/-4.8 mg). The format is organism-based. The note with it: in vivo, po.

The source made the active and inactive calls. No cut-off for these calls is given here.

For orientation: IC50 means the point on the concentration scale where inhibition reaches its midpoint. As a reminder, the EC50 is the concentration needed to bring the measured effect to its halfway point. With `COC1Oc2cc(O)c3c(c2C(=O)N1C(=O)NCc1ccco1)OC1=CC(O)=C(C(C)=O)C(=O)[C@]13C` (stereo partly drawn), in [1], the IC50 was 13 µM. In [2], the EC50 was 0.56 µM.

For the molecule `COC1Oc2cc(O)c3c(c2C(=O)N1C(=O)NCc1ccccn1)OC1=CC(O)=C(C(C)=O)C(=O)[C@]13C` (stereo partly drawn), the concentration giving a half-maximal response (EC50) result in [3] was “Not Active”.

`COC1Oc2cc(O)c3c(c2C(=O)N1C(=O)NCc1cccnc1)OC1=CC(O)=C(C(C)=O)C(=O)[C@]13C` (stereo partly drawn) displayed an EC50 in data set [2] of 11 µM.

Regarding `COC1Oc2cc(O)c3c(c2C(=O)N1C(=O)NCc1ccc([N+](=O)[O-])cc1)OC1=CC(O)=C(C(C)=O)C(=O)[C@]13C` (stereo partly drawn), the EC50 in data set [2] worked out at 6 µM.

In data set [2], `COC1Oc2cc(O)c3c(c2C(=O)N1C(=O)NCc1cccc([N+](=O)[O-])c1)OC1=CC(O)=C(C(C)=O)C(=O)[C@]13C` (stereo partly drawn) showed an EC50 of 2.4 µM.

In [2], `COc1cccc(CNC(=O)N2C(=O)c3c(cc(O)c4c3OC3=CC(O)=C(C(C)=O)C(=O)[C@]34C)OC2OC)c1` (stereo partly drawn) displayed an EC50 of 3.8 µM.

`COC1Oc2cc(O)c3c(c2C(=O)N1C(=O)NCc1ccsc1)OC1=CC(O)=C(C(C)=O)C(=O)[C@]13C` (stereo partly drawn) returned an EC50 in data set [2] of 4.4 µM.

In turn, `COC1Oc2cc(O)c3c(c2C(=O)N1C(=O)NCc1cccs1)OC1=CC(O)=C(C(C)=O)C(=O)[C@]13C` (stereo partly drawn) showed a 50% effective concentration (EC50) in data set [2] of 1.2 µM.

In the case of `COc1cc(O)c2c(c1C(=O)NCc1ccccc1)OC1=CC(O)=C(C(C)=O)C(=O)[C@]12C`, the Activity was 69% in the data set listed under Mus musculus [4], 101% in the data set filed under Mus musculus [5] and 100% in the data set listed under Mus musculus [6]. In data set [2], this molecule returned an EC50 of 0.22 µM.

For orientation: Ki means the equilibrium dissociation constant of an inhibitor or competing ligand from its target. In [7], `COC1Oc2cc(O)c3c(c2C(=O)N1C(=O)NCc1cccc2ccccc12)OC1=CC(O)=C(C(C)=O)C(=O)[C@]13C` (stereo partly drawn) gave a Ki of 0.082 µM. Moreover, the outcome in [8] and in data set [9] was inactive. The Activity was determined as 102.8 mg in the data set on Mus musculus [10] and 103.8 mg in the data set with Mus musculus [11]. In data set [2], this molecule displayed an EC50 of 0.18 µM.

`COC1Oc2cc(O)c3c(c2C(=O)N1C(=O)NCc1ccccc1Cl)OC1=CC(O)=C(C(C)=O)C(=O)[C@]13C` (stereo partly drawn): in [2], the concentration giving a half-maximal response (EC50) was found to be 0.28 µM.

`CC(=O)C1=C(O)C=C2Oc3c4c(cc(O)c3[C@]2(C)C1=O)OC(C)(C)N(Cc1ccccc1)C4=O`: the Activity worked out at 55% in the data set listed under Mus musculus [4], 103% in the data set listed under Mus musculus [5] and 74% in the data set listed under Mus musculus [6].

For `COc1ccc(CNC(=O)N2C(=O)c3c(cc(O)c4c3OC3=CC(O)=C(C(C)=O)C(=O)[C@]34C)OC2OC)cc1` (stereo partly drawn), the response in data set [2] was half-maximal at 1.7 µM (EC50).

As for `COC1Oc2cc(O)c3c(c2C(=O)N1C(=O)NCc1cc2ccccc2o1)OC1=CC(O)=C(C(C)=O)C(=O)[C@]13C` (stereo partly drawn), the EC50 in [2] came out at 2.3 µM.

As for `COC1Oc2cc(O)c3c(c2C(=O)N1C(=O)NCc1ccccc1[N+](=O)[O-])OC1=CC(O)=C(C(C)=O)C(=O)[C@]13C` (stereo partly drawn), in data set [2], a half-maximal effect (EC50) was put at 1.6 µM.

`COC1Oc2cc(O)c3c(c2C(=O)N1C(=O)NCc1cc2ccccc2s1)OC1=CC(O)=C(C(C)=O)C(=O)[C@]13C` (stereo partly drawn): the EC50 in data set [2] stood at 3.8 µM.

`CC(=O)C1=C(O)C=C2Oc3c4c(cc(O)c3[C@]2(C)C1=O)OC(C)(C)NC4=O`: the Activity was 56% in the data set filed under Mus musculus [4], 102% in the data set listed under Mus musculus [5] and 78% in the data set filed under Mus musculus [6].

With `COC1Oc2cc(O)c3c(c2C(=O)N1C(=O)NCc1cccc(Cl)c1)OC1=CC(O)=C(C(C)=O)C(=O)[C@]13C` (stereo partly drawn), in data set [2], the EC50 was found to be 6.7 µM.

As for `COC1Oc2cc(O)c3c(c2C(=O)N1C(=O)NCc1ccoc1)OC1=CC(O)=C(C(C)=O)C(=O)[C@]13C` (stereo partly drawn), in [2], the midpoint of the response, the EC50, lay at 3.2 µM.

Consider `COC1Oc2cc(O)c3c(c2C(=O)N1C(=O)NCc1ccc(Cl)cc1)OC1=CC(O)=C(C(C)=O)C(=O)[C@]13C` (stereo partly drawn), for which the EC50 in data set [2] amounted to 0.77 µM.

Values taken from ChEMBL document CHEMBL1156945, “Discovery of a novel selective PPARgamma modulator from (-)-Cercosporamide derivatives” (Bioorg Med Chem Lett, 2010).
